According to US9193731B2, “Antimicrobial compounds and methods of making and using the same” (Melinta Therapeutics, Inc., priority 2009, dated 2015):

test system: Escherichia coli strain ATCC25922; test: standard microdilution assay to determine minimum inhibitory concentrations (MICs); type: cell-based; settings: Escherichia coli strain ATCC25922, microdilution
Method in brief: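 Broth microdilution MIC against E. coli ATCC25922, following CLSI protocols, typically in a 100 microliter final volume. Results reported as +/− relative to a 16 micrograms/ml cutoff.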

Row | Compound | E. coli ATCC25922 MIC
1 | N=C(N)NCCCNCc1ccc(-n2cc3cc(C4CCCN(CCOCCO)C4)[nH]c3nc2=O)cc1 (stereo not shown) [Compound 2043a] | + (a “+” indicates that the compound has an MIC value of 16 micrograms/ml or less)
2 | N=C(N)NCCCNCc1ccc(-n2cc3cc(-c4ccc(S(=O)(=O)N(CCC(=O)Nc5ccc([N+](=O)[O-])cc5)C5CCNCC5)cc4)[nH]c3nc2=O)cc1 [Compound 854] | + (a “+” indicates that the compound has an MIC value of 16 micrograms/ml or less)
3 | Cc1cc(-n2cc3cc(-c4cccc(OCCCN)c4)[nH]c3nc2=O)ccc1CNCCCNC(=N)N [Compound 1280] | + (a “+” indicates that the compound has an MIC value of 16 micrograms/ml or less)
4 | N=C(N)N[C@@H]1CCCN(Cc2ccc(-n3cc4cc(-c5ccc(S(=O)(=O)NC6CCNCC6)cc5)[nH]c4nc3=O)cc2)C1 [Compound 1119] | + (a “+” indicates that the compound has an MIC value of 16 micrograms/ml or less)
5 | N=C(N)NCCCNCc1ccc(-n2cc3cc(-c4cc(CCN)cc(OCC(F)CN)c4)[nH]c3nc2=O)cc1 (stereo not shown) [Compound 2011a] | + (a “+” indicates that the compound has an MIC value of 16 micrograms/ml or less)
6 | N=C(N)NCCCNCc1ccc(-n2cc3cc(-c4ccc(S(=O)(=O)NC5CCCNC5)cc4)[nH]c3nc2=O)cc1 (stereo not shown) [Compound 805] | + (a “+” indicates that the compound has an MIC value of 16 micrograms/ml or less)
7 | N=C(N)NCCCNCc1ccc(-n2cc3cc(-c4cccc(S(=O)(=O)N(CCCC5CCCC5)C5CCNCC5)c4)[nH]c3nc2=O)cc1 [Compound 1047] | + (a “+” indicates that the compound has an MIC value of 16 micrograms/ml or less)
8 | CN(C)Cc1ccc(-n2cc3cc(-c4ccc(S(=O)(=O)N(CC5COc6ccccc6O5)C5CCNCC5)cc4)[nH]c3nc2=O)cc1 (stereo not shown) [Compound 999] | − (a “−” indicates that the compound has an MIC value greater than 16 micrograms/ml)
9 | N=C(N)NCCCNCc1ccc(-n2cc3cc(-c4ccc(S(=O)(=O)N(CC5(CO)CC5)C5CCNCC5)cc4)[nH]c3nc2=O)cc1 [Compound 958] | + (a “+” indicates that the compound has an MIC value of 16 micrograms/ml or less)
10 | N=C(N)NCCCNCc1ccc(-n2cc3cc(-c4cccc(S(=O)(=O)N(Cc5ccc(Cl)c(Cl)c5)C5CCNCC5)c4)[nH]c3nc2=O)cc1 [Compound 979] | + (a “+” indicates that the compound has an MIC value of 16 micrograms/ml or less)
11 | N=C(N)NCCCNCc1ccc(-n2cc3cc(-c4cc(C(=O)NCCc5ccc(F)cc5)cc(N5CCNCC5)c4)[nH]c3nc2=O)cc1 [Compound 963] | + (a “+” indicates that the compound has an MIC value of 16 micrograms/ml or less)
12 | N=C(N)NCCCNCc1ccc(-n2cc3cc(-c4cccc(OCC5CNCCO5)c4)[nH]c3nc2=O)cc1 (stereo not shown) [Compound 1452] | + (a “+” indicates that the compound has an MIC value of 16 micrograms/ml or less)
13 | N=C(N)NCCCNC(=O)c1ccc(-n2cc3cc(-c4ccc(S(=O)(=O)CCCNC5CCCNC5)cc4)[nH]c3nc2=O)cc1 (stereo not shown) [Compound 1276] | + (a “+” indicates that the compound has an MIC value of 16 micrograms/ml or less)
14 | N=C(N)NCCCNCc1ccc(-n2cc3cc(-c4ccc(S(=O)(=O)NC5CNC5)cc4)[nH]c3nc2=O)cc1 [Compound 1122] | + (a “+” indicates that the compound has an MIC value of 16 micrograms/ml or less)
15 | N=C(N)NCCCNCc1ccc(-n2cc3cc(-c4cccc(C(NC5CN(C(=N)N)C5)C(F)(F)F)c4)[nH]c3nc2=O)cc1 (stereo not shown) [Compound 2024a] | + (a “+” indicates that the compound has an MIC value of 16 micrograms/ml or less)
16 | N=C(N)NCCCNCc1ccc(-n2cc3cc(-c4cc(CCN)cc(CCCCN)c4)[nH]c3nc2=O)cc1 [Compound 2062a] | + (a “+” indicates that the compound has an MIC value of 16 micrograms/ml or less)
17 | CNCc1ccc(-n2cc3cc(-c4ccc(S(=O)(=O)N(CCCc5cn[nH]c5)C5CCNCC5)cc4)[nH]c3nc2=O)cc1 [Compound 1351] | − (a “−” indicates that the compound has an MIC value greater than 16 micrograms/ml)
18 | N=C(N)N1CCC(NCCCS(=O)(=O)c2ccc(-c3cc4cn(-c5ccc(CNCCCN)cc5)c(=O)nc4[nH]3)cc2)C1 (stereo not shown) [Compound 1292] | + (a “+” indicates that the compound has an MIC value of 16 micrograms/ml or less)
19 | CN(C)Cc1ccc(-n2cc3cc(-c4ccc(S(=O)(=O)N(CCCC5CCCC5)C5CCNCC5)cc4)[nH]c3nc2=O)cc1 [Compound 1000] | − (a “−” indicates that the compound has an MIC value greater than 16 micrograms/ml)
20 | CC(C)(N)CCOc1cccc(-c2cc3cn(-c4ccc(CNCCCNC(=N)N)cc4)c(=O)nc3[nH]2)c1 [Compound 1410] | + (a “+” indicates that the compound has an MIC value of 16 micrograms/ml or less)
21 | CNCc1ccc(-n2cc3cc(-c4ccc(S(=O)(=O)N(CC5CC5)C5CCNCC5)cc4)[nH]c3nc2=O)cc1 [Compound 936] | − (a “−” indicates that the compound has an MIC value greater than 16 micrograms/ml)

same assay, conditions: Escherichia coli, ATCC25922, Escherichia coli strain ATCC25922, microdilution; read-out: E. coli ATCC25922 MIC

Row | Compound | MIC
22 | N=C(N)NCCCNCc1ccc(-c2cn3cc(-c4ccc(C(=O)NC5CN6CCC5CC6)cc4)[nH]c3nc2=O)cc1 (stereo not shown) [Compound 778] | < 16 µg/mL
23 | O=c1nc2[nH]c(-c3ccc(S(=O)(=O)NC4CCNCC4)c(Cl)c3)cc2cn1-c1ccc(CNCCCF)cc1 [Compound 261] | > 16 µg/mL
24 | NCCCN(CCCN)Cc1ccc(-n2cc3cc(-c4ccc(C(=O)N[C@H]5CC[C@H](O)CC5)cc4)[nH]c3nc2=O)cc1 [Compound 192] | > 16 µg/mL
25 | NC(=O)/N=C(\N)NCCCNCc1ccc(-n2cc3cc(-c4ccc(C(=O)NC5CCNCC5)cc4)[nH]c3nc2=O)cc1 [Compound 228] | < 16 µg/mL
26 | N=C(N)NCCCN(CCCN)Cc1ccc(-n2cc3cc(-c4ccc(S(=O)(=O)NC5CCNCC5)cc4)[nH]c3nc2=O)cc1 [Compound 220] | < 16 µg/mL
27 | NCCCN(CCCN)Cc1ccc(-n2cc3cc(-c4ccc(S(=O)(=O)NC5CCNCC5)cc4)[nH]c3nc2=O)cc1 [Compound 198] | < 16 µg/mL
28 | N=C(N)NCCCNCc1ccc(-c2cn3cc[nH]c3nc2=O)cc1 [Compound 564, N-{3-[4-(7-Oxo-1,7-dihydro-imidazo[1,2-a]pyrimidin-6-yl)-benzylamino]-propyl}-guanidine] | < 16 µg/mL
29 | N=C(N)NCCCNCc1ccc(-n2cc3cc(COc4ccccc4)[nH]c3nc2=O)cc1 [Compound 630] | > 16 µg/mL
30 | CN(CCCNCc1ccc(-n2cc3cc(-c4ccc(C(=O)NC5CCNCC5)cc4)[nH]c3nc2=O)cc1)C(=N)N [Compound 241] | < 16 µg/mL
31 | NCCCNCc1ccc(-n2cc3cc(-c4cc(F)c(F)cc4F)[nH]c3nc2=O)cc1 [Compound 310] | > 16 µg/mL
32 | NCCCNCc1ccc(-c2cn3cc(-c4ccc(C(=O)N5CC[C@@H](F)C5)cc4)[nH]c3nc2=O)cc1 [Compound 668] | > 16 µg/mL
33 | CS(=O)(=O)c1ccc(-c2cn3cc(-c4ccc(CNCCCNC(=N)N)cc4)c(=O)nc3[nH]2)cc1 [Compound 632] | > 16 µg/mL
34 | N=C(N)NCCCNCc1ccc(-n2cc3cc(-c4ccsc4)[nH]c3nc2=O)cc1 [Compound 629] | < 16 µg/mL
35 | N=C(N)NCCCN(CCCN)Cc1ccc(-n2cc3cc[nH]c3nc2=O)cc1 [Compound 194] | < 16 µg/mL
36 | NCCCN(CCCN)Cc1ccc(-n2cc3cc(-c4ccc(C(=O)O)cc4)[nH]c3nc2=O)cc1 [Compound 218] | > 16 µg/mL

Results, then the molecule that gave them:

Row | MIC | Compound
37 | < 16 µg/mL | CN(C(=O)c1ccc(-c2cn3cc(-c4ccc(CNCCCNC(=N)N)cc4)c(=O)nc3[nH]2)cc1)C1CCNCC1 [Compound 736]
38 | > 16 µg/mL | CN(CCCOc1cccc(-c2cc3cn(-c4ccc(CNCCCNC(=N)N)cc4)c(=O)nc3[nH]2)c1)C(=O)c1ccccc1 [Compound 1204]
39 | > 16 µg/mL | N[C@H]1CCCN(Cc2ccc(-n3cc4cc[nH]c4nc3=O)cc2)C1 [Compound 1156]
40 | > 16 µg/mL | NCCC(=O)NCCCn1cc2cc(-c3ccc(S(=O)(=O)N[C@@H]4CCCNC4)cc3)[nH]c2nc1=O [Compound 1298]
41 | > 16 µg/mL | CS(=O)(=O)N1CCN(C(=O)c2ccc(-c3cn4cc(-c5ccc(CNCCCN)cc5)c(=O)nc4[nH]3)cc2)CC1 [Compound 701]
42 | < 16 µg/mL | N=C(N)NCCCNCc1ccc(-n2cc3cc(-c4cccc(S(=O)(=O)NC5CCNCC5)c4)[nH]c3nc2=O)cc1 [Compound 836]
43 | < 16 µg/mL | N=C(N)NCCCNCc1ccc(-n2cc3cc(-c4cccc(CN5CCNCC5)c4)[nH]c3nc2=O)cc1 [Compound 1233]
44 | > 16 µg/mL | NCCCNCc1ccc(-c2cn3cc(-c4ccc(C(=O)NC56CC7CC(CC(C7)C5)C6)cc4)[nH]c3nc2=O)cc1 [Compound 717]
45 | > 16 µg/mL | COc1ccc(CCN(C2CCNCC2)S(=O)(=O)c2cccc(-c3cc4cn(-c5ccc(CN)cc5)c(=O)nc4[nH]3)c2)cc1 [Compound 1215]
46 | > 16 µg/mL | NCc1ccc(-n2cc3cc(-c4ccc(S(=O)(=O)N(CCCn5cccn5)C5CCNCC5)cc4)[nH]c3nc2=O)cc1 [Compound 1035]
47 | > 16 µg/mL | CC(=O)NCCOc1cccc(-c2cc3cn(-c4ccc(CN)cc4)c(=O)nc3[nH]2)c1 [Compound 1143]
48 | < 16 µg/mL | N=C(N)NCCC(=O)NCc1ccc(-n2cc3cc(-c4ccc(C[C@H](N)CO)cc4)[nH]c3nc2=O)cc1 [Compound 1163]
49 | > 16 µg/mL | N=C(N)NCCCCOc1ccc(-c2cn3cc(-c4ccc(Br)cc4)[nH]c3nc2=O)cc1 [Compound 813]
50 | > 16 µg/mL | N=C(N)NCCCCCc1ccc(-c2cn3cc(-c4ccc(Br)cc4)[nH]c3nc2=O)cc1 [Compound 885]
51 | < 16 µg/mL | N=C(N)NCCCNCc1ccc(-n2cc3cc(C4CCCC(CNCCN)C4)[nH]c3nc2=O)cc1 (stereo not shown) [Compound 2026a]
52 | < 16 µg/mL | N=C(N)NCCCNCc1ccc(-n2cc3cc(CCN[C@H]4CCCNC4)[nH]c3nc2=O)cc1 [Compound 817]
53 | < 16 µg/mL | N=C(N)NCCCNCc1ccc(-n2cc3cc(CCNC4CCNCC4)[nH]c3nc2=O)cc1 [Compound 719]
54 | < 16 µg/mL | NCCCNCc1ccc(-n2cc3cc(CCS(=O)(=O)N(CC4CCOCC4)C4CCNCC4)[nH]c3nc2=O)cc1 [Compound 923]
55 | > 16 µg/mL | NCc1ccc(-n2cc3cc(-c4cccc(S(=O)(=O)N(CCc5ccc(O)cc5)C5CCNCC5)c4)[nH]c3nc2=O)cc1 [Compound 1182]
